In patent US20260125382A1, “COMPOUNDS FOR INHIBITING OR DEGRADING CDK2 AND/OR CDK9 AND MEDICINAL USE THEREOF” (KOREA RESEARCH INSTITUTE OF CHEMICAL TECHNOLOGY, priority 2022, published 2026):

What was measured:
CDK2 = biological target: T1, CDK2 (Homo sapiens, UniProt P24941); test: CDK protein degradation activity (Western blotting), CDK2; format: cell-based; details: MDA-MB-231 cells, 16 hours, Western blot
T1 construct: endogenous in cells; host or cells: MDA-MB-231
Summary of the method: (§1)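 Protein levels were read by Western blot densitometry, tubulin serving as loading reference. Beforehand, MDA-MB-231 cells had been exposed for 16 hours to 100 nM, 1 μM or 10 μM compound, DMSO as control.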

CDK9 = biological target: T2, CDK9 (Homo sapiens, UniProt P50750); test: CDK protein degradation activity (Western blotting), CDK9; format: cell-based; details: MDA-MB-231 cells, 16 hours, Western blot
T2 construct: endogenous in cells; host or cells: MDA-MB-231
Summary of the method: as §1

T2 sequence (P50750 whole entry): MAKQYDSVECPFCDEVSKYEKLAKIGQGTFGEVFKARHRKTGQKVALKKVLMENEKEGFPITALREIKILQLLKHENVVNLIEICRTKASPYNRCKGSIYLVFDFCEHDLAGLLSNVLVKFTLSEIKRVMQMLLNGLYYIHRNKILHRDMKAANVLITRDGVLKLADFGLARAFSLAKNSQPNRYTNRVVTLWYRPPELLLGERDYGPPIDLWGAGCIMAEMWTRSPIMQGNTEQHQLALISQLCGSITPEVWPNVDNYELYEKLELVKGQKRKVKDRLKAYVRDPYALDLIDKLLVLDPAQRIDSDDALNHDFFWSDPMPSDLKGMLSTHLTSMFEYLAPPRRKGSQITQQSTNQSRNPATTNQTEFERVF

Enzyme degradation CDK2 (% remaining) @ 0.1 μM (CDK2) | Enzyme degradation CDK2 (% remaining) @ 1 μM (CDK2) | Enzyme degradation CDK2 (% remaining) @ 10 μM (CDK2) | Enzyme degradation CDK9 (% remaining) @ 0.1 μM (CDK9) | Enzyme degradation CDK9 (% remaining) @ 1 μM (CDK9) | Enzyme degradation CDK9 (% remaining) @ 10 μM (CDK9) | SMILES
10% | 20% | 20% | 0/0/0% | 0/0/0% | 0/0/0% | O=C1CC[C@H](N2C(=O)c3ccc(N4CCC(CN5CCN(c6ccc(Nc7ncnc8c7ncn8C7CC(NC(=O)c8c(Cl)cccc8Cl)C7)cc6)CC5)CC4)cc3C2=O)C(=O)N1 (stereo partly drawn) [Compound 166, 2,6-dichloro-N-((1s,3s)-3-(6-((4-(4-((1-(2-(2,6-dioxopiperidin-3-yl)-1,3-dioxoisoindolin-5-yl)piperidin-4-yl)methyl)piperazin-1-yl)phenyl)amino)-9H-purin-9-yl)cyclobutyl)benzamide]
30% | 40% | 30% | 0/0/0% | 0/0/0% | 0/0/0% | O=C1CC[C@H](N2C(=O)c3cccc(N4CCC(CN5CCN(c6ccc(Nc7ncnc8c7ncn8[C@H]7C[C@@H](NC(=O)c8c(Cl)cccc8Cl)C7)cc6)CC5)CC4)c3C2=O)C(=O)N1 [Compound 167, 2,6-dichloro-N-((1s,3s)-3-(6-((4-(4-((1-(2-(2,6-dioxopiperidin-3-yl)-1,3-dioxoisoindolin-4-yl)piperidin-4-yl)methyl)piperazin-1-yl)phenyl)amino)-9H-purin-9-yl)cyclobutyl)benzamide]
50% | 10% | 10% | 80% | 40% | 10% | O=C1CC[C@H](N2C(=O)c3cccc(OCC(=O)N4CCC(CN5CCC(CNc6ncnc7c6ncn7C6CC(NC(=O)c7c(Cl)cccc7Cl)C6)CC5)CC4)c3C2=O)C(=O)N1 (stereo partly drawn) [Compound 168, 2,6-dichloro-N-((1s,3s)-3-(6-(((1-((1-(2-((2-(2,6-dioxopiperidin-3-yl)-1,3-dioxoisoindolin-4-yl)oxy)acetyl)piperidin-4-yl)methyl)piperidin-4-yl)methyl)amino)-9H-purin-9-yl)cyclobutyl)benzamide]
80% | 70% | 70% | 10% | 0% | 0% | O=C1CC[C@H](N2C(=O)c3ccc(OCC(=O)N4CCC(CN5CCC(CNc6ncnc7c6ncn7C6CC(NC(=O)c7c(Cl)cccc7Cl)C6)CC5)CC4)cc3C2=O)C(=O)N1 (stereo partly drawn) [Compound 169, 2,6-dichloro-N-((1s,3s)-3-(6-(((1-((1-(2-((2-(2,6-dioxopiperidin-3-yl)-1,3-dioxoisoindolin-5-yl)oxy)acetyl)piperidin-4-yl)methyl)piperidin-4-yl)methyl)amino)-9H-purin-9-yl)cyclobutyl)benzamide]
0% | 10% | 20% | 10% | 0% | 10% | O=C1CC[C@H](N2C(=O)c3cccc(NCC(=O)N4CCC(CN5CCC(CNc6ncnc7c6ncn7[C@H]6C[C@@H](NC(=O)c7c(Cl)cccc7Cl)C6)CC5)CC4)c3C2=O)C(=O)N1 [Compound 170, 2,6-dichloro-N-((1s,3s)-3-(6-(((1-((1-((2-(2,6-dioxopiperidin-3-yl)-1,3-dioxoisoindolin-4-yl)glycyl)piperidin-4-yl)methyl)piperidin-4-yl)methyl)amino)-9H-purin-9-yl)cyclobutyl)benzamide]
20% | 10% | 10% | 0/0/0% | 0/0/0% | 0/0/0% | O=C1CCC(N2C(=O)c3ccc(NCC(=O)N4CCC(CN5CCC(CNc6ncnc7c6ncn7[C@H]6C[C@@H](NC(=O)c7c(Cl)cccc7Cl)C6)CC5)CC4)cc3C2=O)C(=O)N1 (stereo partly drawn) [Compound 171, 2,6-dichloro-N-((1s,3s)-3-(6-(((1-((1-((2-(2,6-dioxopiperidin-3-yl)-1,3-dioxoisoindolin-5-yl)glycyl)piperidin-4-yl)methyl)piperidin-4-yl)methyl)amino)-9H-purin-9-yl)cyclobutyl)benzamide]
10% | 20% | 20% | 50% | 0% | 0% | O=C1CC[C@H](N2C(=O)c3cccc(N4CCC(CN5CCC(CNc6ncnc7c6ncn7C6CC(NC(=O)c7c(Cl)cccc7Cl)C6)CC5)CC4)c3C2=O)C(=O)N1 (stereo partly drawn) [Compound 172, 2,6-dichloro-N-((1s,3s)-3-(6-(((1-((1-(2-(2,6-dioxopiperidin-3-yl)-1,3-dioxoisoindolin-4-yl)piperidin-4-yl)methyl)piperidin-4-yl)methyl)amino)-9H-purin-9-yl)cyclobutyl)benzamide]
30% | 30% | 50% | 50% | 20% | 0% | O=C1CC[C@H](N2C(=O)c3ccc(N4CCC(CN5CCC(CNc6ncnc7c6ncn7[C@H]6C[C@@H](NC(=O)c7c(Cl)cccc7Cl)C6)CC5)CC4)cc3C2=O)C(=O)N1 [Compound 173, 2,6-dichloro-N-((1s,3s)-3-(6-(((1-((1-(2-(2,6-dioxopiperidin-3-yl)-1,3-dioxoisoindolin-5-yl)piperidin-4-yl)methyl)piperidin-4-yl)methyl)amino)-9H-purin-9-yl)cyclobutyl)benzamide]
100% | 80% | 30% | 80% | 30% | 0% | O=C1CC[C@H](N2C(=O)c3ccc(OCC(=O)N4CCC(CN5CCN(c6ccc(Nc7ncnc8c7ncn8C7CC(NC(=O)Cc8ccccc8)C7)cc6)CC5)CC4)cc3C2=O)C(=O)N1 (stereo partly drawn) [Compound 175, N-((1s,3s)-3-(6-((4-(4-((1-(2-((2-(2,6-dioxopiperidin-3-yl)-1,3-dioxoisoindolin-5-yl)oxy)acetyl)piperidin-4-yl)methyl)piperazin-1-yl)phenyl)amino)-9H-purin-9-yl)cyclobutyl)-2-phenylacetamide]
50% | 10% | 10% | 30% | 0% | 0% | O=C1CC[C@H](N2C(=O)c3ccc(NCC(=O)N4CCC(CN5CCN(c6ccc(Nc7ncnc8c7ncn8C7CC(NC(=O)Cc8ccccc8)C7)cc6)CC5)CC4)cc3C2=O)C(=O)N1 (stereo partly drawn) [Compound 177, N-((1s,3s)-3-(6-((4-(4-((1-((2-(2,6-dioxopiperidin-3-yl)-1,3-dioxoisoindolin-5-yl)glycyl)piperidin-4-yl)methyl)piperazin-1-yl)phenyl)amino)-9H-purin-9-yl)cyclobutyl)-2-phenylacetamide]
30% | 20% | 20% | 10% | 0% | 0% | O=C1CC[C@H](N2C(=O)c3cccc(N4CCC(CN5CCN(c6ccc(Nc7ncnc8c7ncn8C7CC(NC(=O)Cc8ccccc8)C7)cc6)CC5)CC4)c3C2=O)C(=O)N1 (stereo partly drawn) [Compound 178, N-((1s,3s)-3-(6-((4-(4-((1-(2-(2,6-dioxopiperidin-3-yl)-1,3-dioxoisoindolin-4-yl)piperidin-4-yl)methyl)piperazin-1-yl)phenyl)amino)-9H-purin-9-yl)cyclobutyl)-2-phenylacetamide]
10% | 0% | 0% | 10% | 0% | 0% | O=C1CC[C@H](N2C(=O)c3ccc(N4CCC(CN5CCN(c6ccc(Nc7ncnc8c7ncn8[C@H]7C[C@@H](NC(=O)Cc8ccccc8)C7)cc6)CC5)CC4)cc3C2=O)C(=O)N1 [Compound 179, N-((1s,3s)-3-(6-((4-(4-((1-(2-(2,6-dioxopiperidin-3-yl)-1,3-dioxoisoindolin-5-yl)piperidin-4-yl)methyl)piperazin-1-yl)phenyl)amino)-9H-purin-9-yl)cyclobutyl)-2-phenylacetamide]
30/30/30% | 30/30/30% | 30/30/30% | 20% | 80% | 0% | O=C1CCC(N2C(=O)c3cccc(N4CCC(CN5CCC(CNc6ncnc7c6ncn7[C@H]6C[C@@H](NC(=O)Cc7ccccc7)C6)CC5)CC4)c3C2=O)C(=O)N1 (stereo partly drawn) [Compound 180, N-((1s,3s)-3-(6-(((1-((1-(2-(2,6-dioxopiperidin-3-yl)-1,3-dioxoisoindolin-4-yl)piperidin-4-yl)methyl)piperidin-4-yl)methyl)amino)-9H-purin-9-yl)cyclobutyl)-2-phenylacetamide]
